Structures can show the parent of a compound that is named as a salt.
Key:
[1] = system: Aβtotal produced and secreted into the medium of human neuroblastoma SKNBE2 cells; assay: Cellular αlisa assay in SKNBE2 cells, Aβtotal; type: cell-based; conditions: SKNBE2 cells expressing hAPP695, 18 hours incubation; for IC50: Homo sapiens, SKNBE2, 18 h, read-out: Cellular αlisa assay in SKNBE2 cells Aβtotal pIC50 (converted)
Description: (§1) Cellular αlisa Assay in SKNBE2 Cells
(§2) In two αlisa assays the levels of Aβtotal and Aβ42 produced and secreted into the medium of human neuroblastoma SKNBE2 cells are quantified. The assay is based on the human neuroblastoma SKNBE2 expressing the wild type Amyloid Precursor Protein (hAPP695). The compounds are diluted and added to these cells, incubated for 18 hours and then measurements of Aβ42 and Aβtotal are taken. Aβtotal and Aβ42 are measured by sandwich αlisa. αlisa is a sandwich assay using biotinylated antibody AbN/25 attached to streptavidin coated beads and antibody Ab4G8 or cAb42/26 conjugated acceptor beads for the detection of Aβtotal and Aβ42 respectively. In the presence of Aβtotal or Aβ42, the beads come into close proximity. The excitation of the Donor beads provokes the release of singlet oxygen molecules that triggers a cascade of energy transfer in the Acceptor beads, resulting in light emission. Light emission is measured after 1 hour incubation (excitation at […] and emission at 615 nm).
(§3) A best-fit curve is fitted by a minimum sum of squares method to the plot of % Controlmin versus compound concentration.

[2] = system: Aβ42 produced and secreted into the medium of human neuroblastoma SKNBE2 cells; assay: Cellular αlisa assay in SKNBE2 cells, Aβ42; type: cell-based; conditions: SKNBE2 cells expressing hAPP695, 18 hours incubation; for IC50: Homo sapiens, SKNBE2, 18 h, read-out: Cellular αlisa assay in SKNBE2 cells Aβ42 pIC50 (converted)
Description: as §1, §2, §3

brain levels of total Aβ = assay: In vivo efficacy: brain Aβtotal lowering (ELISA); parameters: species or system mouse; conditions: 4 h. after administration
From the text: (§4) To determine whether acute administration of an Aβ42 peptide lowering agent would reduce Aβ peptide levels in vivo, non-transgenic rodents, e.g. mice or rats were used. Animals treated with the Aβ peptide lowering agent were examined and compared to those untreated or treated with vehicle and brain levels of soluble Aβ42 and total Aβ were quantitated by standard techniques, for example, using ELISA. Treatment periods varied from hours (h) to days and were adjusted based on the results of the Aβ42 lowering once a time course of onset of effect could be established.
(§5) A typical protocol for measuring Aβ42 lowering in vivo is shown but it is only one of many variations that could be used to optimize the levels of detectable Aβ. For example, Aβ peptide lowering compounds were formulated in 20% hydroxypropyl β cyclodextrin. The Aβ peptide lowering agents were administered as a single oral dose (p.o.) or a single subcutaneous dose (s.c.) to overnight fasted animals. After a certain time, usually 2 or 4 h (as indicated in Table 7), the animals were sacrificed and Aβ42 levels were analysed.
(§6) Blood was collected by decapitation and exsanguinations in EDTA-treated collection tubes. Blood was centrifuged at 1900 g for 10 minutes (min) at 4° C. and the plasma recovered and flash frozen for later analysis. The brain was removed from the cranium and hindbrain. The cerebellum was removed and the left and right hemisphere were separated. The left hemisphere was stored at −18° C. for quantitative analysis of test compound levels. The right hemisphere was rinsed with phosphate-buffered saline (PBS) buffer and immediately frozen on dry ice and stored at −80° C. until homogenization for biochemical assays.
(§7) Mouse brains from non-transgenic animals were resuspended in 8 volumes of 0.4% DEA (diethylamine)/50 mM NaCl containing protease inhibitors (Roche-11873580001 or 04693159001) per gram of tissue, e.g. for 0.158 g brain, add 1.264 ml of 0.4% DEA. All samples were homogenized in the FastPrep-24 system (MP Biomedicals) using lysing matrix D (MPBio #6913-100) at 6 m/s for 20 seconds. Homogenates were centrifuged at 221.300×g for 50 min. The resulting high speed supernatants were then transferred to fresh eppendorf tubes. Nine parts of supernatant were neutralized with 1 part 0.5 M Tris-HCl pH 6.8 and used to quantify Aβtotal and Aβ42.
(§8) To quantify the amount of Aβtotal and Aβ42 in the soluble fraction of the brain homogenates, Enzyme-Linked-Immunosorbent-Assays were used. Briefly, the standards (a dilution of synthetic Aβ1-40 and […], Bachem) were prepared in 1.5 ml Eppendorf tube in Ultraculture, with final concentrations ranging from 10000 to 0.3 pg/ml. The samples and standards were co-incubated with HRPO-labelled N-terminal antibody for Aβ42 detection and with the biotinylated mid-domain antibody 4G8 for Aβtotal detection. 50 μl of conjugate/sample or conjugate/standards mixtures were then added to the antibody-coated plate (the capture antibodies selectively recognize the C-terminal end of Aβ42, antibody JRF/cAβ42/26, for Aβ42 detection and the N-terminus of Aβ, antibody JRF/rAβ/2, for Aβtotal detection). The plate was allowed to incubate overnight at 4° C. in order to allow formation of the antibody-amyloid complex. Following this incubation and subsequent wash steps the ELISA for Aβ42 quantification was finished by addition of Quanta Blu fluorogenic peroxidase substrate according to the manufacturer's instructions (Pierce Corp., Rockford, Il.). A reading was performed after 10 to 15 min (excitation 320 nm/emission 420 nm).
For Aβtotal detection, a Streptavidine-Peroxidase-Conjugate was added, followed 60 min later by an additional wash step and addition of Quanta Blu fluorogenic peroxidase substrate according to the manufacturer's instructions (Pierce Corp., Rockford, Il.). A reading was performed after 10 to 15 min (excitation 320 nm/emission 420 nm).

[3] = system: brain levels of soluble Aβ42; assay: In vivo efficacy: brain Aβ42 lowering (ELISA); parameters: species or system mouse; conditions: 4 h. after administration
From the text: as §4, §5, §6, §7, §8
In this model at least 20% Aβ42 lowering compared to untreated animals would be advantageous.

[4] = target: recombinant BACE1 protein (Homo sapiens, UniProt P56817); assay: Biochemical FRET based assay; conditions: recombinant BACE1 1 μg/ml, 120 min, pH 5.0; for IC50: read-out: Biochemical FRET based assay pIC50 (converted)
recombinant BACE1 protein, sequence (P56817 46-501): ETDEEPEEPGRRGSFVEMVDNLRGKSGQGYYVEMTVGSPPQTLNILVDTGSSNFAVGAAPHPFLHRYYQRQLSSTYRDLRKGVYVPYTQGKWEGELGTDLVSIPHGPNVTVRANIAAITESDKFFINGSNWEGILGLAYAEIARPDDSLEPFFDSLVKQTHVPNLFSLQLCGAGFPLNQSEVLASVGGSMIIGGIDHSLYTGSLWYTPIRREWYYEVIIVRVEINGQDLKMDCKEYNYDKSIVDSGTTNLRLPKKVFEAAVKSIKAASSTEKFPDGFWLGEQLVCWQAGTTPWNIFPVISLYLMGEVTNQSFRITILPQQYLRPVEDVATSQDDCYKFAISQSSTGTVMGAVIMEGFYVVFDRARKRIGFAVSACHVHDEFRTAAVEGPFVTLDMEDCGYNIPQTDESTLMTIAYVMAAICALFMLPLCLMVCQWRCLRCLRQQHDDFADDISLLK
From the text: Biochemical FRET Based Assay
This assay is a Fluorescence Resonance Energy Transfer Assay (FRET) based assay. The substrate for this assay is an APP derived 13 amino acids peptide that contains the ‘Swedish’ Lys-Met/Asn-Leu mutation of the amyloid precursor protein (APP) β-secretase cleavage site. This substrate also contains two fluorophores: (7-methoxycoumarin-4-yl)acetic acid (Mca) is a fluorescent donor with excitation wavelength at 320 nm and emission at 405 nm and 2,4-Dinitrophenyl (Dnp) is a proprietary quencher acceptor. […] Upon cleavage by BACE1, the fluorophore Mca is separated from the quenching group Dnp, restoring the full fluorescence yield of the donor. The increase in fluorescence is linearly related to the rate of proteolysis (Koike H et al. J. Biochem. 1999, 126, 235-242). Briefly in a 384-well format recombinant BACE1 protein in a final concentration of 1 μg/ml is incubated for 120 min at room temperature with 10 μm substrate in incubation buffer (40 mM Citrate buffer pH 5.0, 0.04% PEG, 4% DMSO) in the absence or presence of compound. Next the amount of proteolysis is directly measured by fluorescence measurement at T=0 and T=120 (excitation at 320 nm and emission at 405 nm).

Structure (SMILES)	Cellular αlisa assay in SKNBE2 cells Aβtotal pIC50 [1]	Cellular αlisa assay in SKNBE2 cells Aβ42 pIC50 [2]	IC50 [4] [µM]	IC50 [1] [µM]	IC50 [2] [µM]	further results
CC1(c2cccc(NC(=O)c3ccc(C#N)cn3)c2)Cn2nccc2C(N)=N1 (single isomer, unassigned) [Compound 7, (R*)-5-cyano-pyridine-2-carboxylic acid [3-(4-amino-6-methyl-6,7-dihydro-pyrazolo[1,5-a]pyrazin-6-yl)-phenyl]-amide]	8.69	8.66				Aβtotal (% Ctrl)_Mean (brain levels of total Aβ; 30 mg/kg p.o.): 101 % Ctrl; Aβ42 (% Ctrl)_Mean ([3]; 30 mg/kg p.o.): 88 % Ctrl
CC1(c2cc(NC(=O)c3ccc(F)cn3)ccc2F)Cn2ncc(F)c2C(N)=N1 (centres unmarked) [Compound 33]	8.14	8.09				Biochemical FRET based assay pIC50 [4]: 7.19; Aβtotal (% Ctrl)_Mean (brain levels of total Aβ; 100 mg/kg s.c.): 20 % Ctrl; Aβ42 (% Ctrl)_Mean ([3]; 100 mg/kg s.c.): 49 % Ctrl
COc1cnc(C(=O)Nc2ccc(F)c([C@]3(C)Cn4nc(C#N)cc4C(N)=N3)c2)cn1 [Compound 23, (R)-5-methoxy-pyrazine-2-carboxylic acid [3-(4-amino-2-cyano-6-methyl-6,7-dihydro-pyrazolo[1,5-a]pyrazin-6-yl)-4-fluoro-phenyl]-amide]			0.0398	0.00195	0.00178	Aβtotal (% Ctrl)_Mean (brain levels of total Aβ; 10 mg/kg p.o.): 39 % Ctrl; Aβ42 (% Ctrl)_Mean ([3]; 10 mg/kg p.o.): 45 % Ctrl
COc1cnc(C(=O)Nc2ccc(F)c([C@]3(C)Cn4ncc(F)c4C(N)=N3)c2)cn1 [Compound 13, (R)-5-methoxy-pyrazine-2-carboxylic acid [3-(4-amino-3-fluoro-6-methyl-6,7-dihydro-pyrazolo[1,5-a]pyrazin-6-yl)-4-fluoro-phenyl]-amide]			0.0724	0.0055	0.00676	
CC1(c2cc(NC(=O)c3ncc(Cl)cc3Cl)ccc2F)Cn2nccc2C(N)=N1 (racemic) [Compound 14, rac-3,5-dichloro-pyridine-2-carboxylic acid [3-(4-amino-6-methyl-6,7-dihydro-pyrazolo[1,5-a]pyrazin-6-yl)-4-fluoro-phenyl]-amide]			0.0355	0.00117	0.00135	
Cc1nc(C(=O)Nc2ccc(F)c(C3(C)Cn4ncc(F)c4C(N)=N3)c2)c(C)o1 (centres unmarked) [Compound 36]	7.53	7.56				Biochemical FRET based assay pIC50 [4]: 7.04
CC1(c2cccc(NC(=O)c3ccc(C#N)cn3)c2)Cn2ncc(Br)c2C(N)=N1 (racemic) [Compound 9, rac-5-cyano-pyridine-2-carboxylic acid [3-(4-amino-3-bromo-6-methyl-6,7-dihydro-pyrazolo[1,5-a]pyrazin-6-yl)-phenyl]-amide trifluorocetate salt]			7.94	0.871	1	
C[C@@]1(c2cc(NC(=O)c3ccc(C#N)cn3)ccc2F)Cn2nc(C#N)cc2C(N)=N1 [Compound 26, (R)-5-cyano-pyridine-2-carboxylic acid [3-(4-amino-2-cyano-6-methyl-6,7-dihydro-pyrazolo[1,5-a]pyrazin-6-yl)-4-fluoro-phenyl]-amide]			0.049	0.00145	0.00148	
CC1(c2cccc(NC(=O)c3ncc(Cl)cc3Cl)c2)Cn2nc(C(F)(F)F)cc2C(N)=N1 (single isomer, unassigned) [Compound 12, (S*)-3,5-dichloro-pyridine-2-carboxylic acid [3-(4-amino-6-methyl-2-trifluoromethyl-6,7-dihydro-pyrazolo[1,5-a]pyrazin-6-yl)-phenyl]-amide]	5.75	5.64	8.71			
CC1(c2cc(NC(=O)c3ccc(F)cn3)ccc2F)Cn2ncc(Cl)c2C(N)=N1 (centres unmarked) [Compound 38]	6.22	6.16				Biochemical FRET based assay pIC50 [4]: 6.03
CC1(c2cc(NC(=O)c3ncc(Cl)cc3Cl)ccc2F)Cn2nccc2C(N)=N1 (single isomer, unassigned) [Compound 16, (S*)-3,5-dichloro-pyridine-2-carboxylic acid [3-(4-amino-6-methyl-6,7-dihydro-pyrazolo[1,5-a]pyrazin-6-yl)-4-fluoro-phenyl]-amide]	7.74	7.66	1.05			
CC1(c2cccc(NC(=O)c3ncc(Cl)cc3Cl)c2)Cn2nc(C(F)(F)F)cc2C(N)=N1 (racemic) [Compound 10, rac-3,5-dichloro-pyridine-2-carboxylic acid [3-(4-amino-6-methyl-2-trifluoromethyl-6,7-dihydro-pyrazolo[1,5-a]pyrazin-6-yl)-phenyl]-amide]			0.0631	0.0155	0.0166	
CC1(c2cccc(NC(=O)c3ncc(Cl)cc3Cl)c2)Cn2nccc2C(N)=N1 (racemic) [Compound 3, rac-3,5-dichloro-pyridine-2-carboxylic acid [3-(4-amino-6-methyl-6,7-dihydro-pyrazolo[1,5-a]pyrazin-6-yl)-phenyl]-amide]			0.0468	0.00339	0.00324	
CC1(c2cccc(NC(=O)c3ccc(Cl)cn3)c2)Cn2nccc2C(N)=N1 (racemic) [Compound 2, rac-5-chloro-pyridine-2-carboxylic acid [3-(4-amino-6-methyl-6,7-dihydro-pyrazolo[1,5-a]pyrazin-6-yl)-phenyl]-amide]			0.0832	0.00245	0.00324	
